“And” between values parts separate entries of the source, which are not always exact repeats. Identical values can stand only once. Like-named read-outs stand apart in the source and are kept apart here.
Legend:
hAsc-1 Y280F mutant = molecular target: T1, hAsc-1 Y280F mutant (Homo sapiens, UniProt Q9NS82, Y280F); assay: [3H]L-alanine uptake in HeLa cells, hAsc-1 Y280F; type: cell-based; settings: WT = 100, n=1-3 and mean
T1 construct: expressed in transfected cells; host or cells: HeLa
T1 sequence (Q9NS82 1-523 Y280F): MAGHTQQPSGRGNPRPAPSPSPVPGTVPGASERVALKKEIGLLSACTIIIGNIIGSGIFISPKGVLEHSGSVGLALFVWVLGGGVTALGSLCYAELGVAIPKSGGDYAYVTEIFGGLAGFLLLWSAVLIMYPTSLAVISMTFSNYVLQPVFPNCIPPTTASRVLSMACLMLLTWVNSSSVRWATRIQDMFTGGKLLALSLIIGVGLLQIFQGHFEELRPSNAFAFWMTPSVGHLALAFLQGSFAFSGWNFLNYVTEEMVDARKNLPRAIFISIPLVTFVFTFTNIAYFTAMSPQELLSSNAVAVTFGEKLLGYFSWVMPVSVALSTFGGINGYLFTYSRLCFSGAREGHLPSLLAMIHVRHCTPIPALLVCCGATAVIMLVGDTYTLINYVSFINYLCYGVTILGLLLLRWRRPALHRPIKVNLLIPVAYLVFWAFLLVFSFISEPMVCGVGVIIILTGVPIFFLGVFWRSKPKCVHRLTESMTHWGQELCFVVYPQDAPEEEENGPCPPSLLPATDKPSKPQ
T1 sequence (P08195 1-529 partner): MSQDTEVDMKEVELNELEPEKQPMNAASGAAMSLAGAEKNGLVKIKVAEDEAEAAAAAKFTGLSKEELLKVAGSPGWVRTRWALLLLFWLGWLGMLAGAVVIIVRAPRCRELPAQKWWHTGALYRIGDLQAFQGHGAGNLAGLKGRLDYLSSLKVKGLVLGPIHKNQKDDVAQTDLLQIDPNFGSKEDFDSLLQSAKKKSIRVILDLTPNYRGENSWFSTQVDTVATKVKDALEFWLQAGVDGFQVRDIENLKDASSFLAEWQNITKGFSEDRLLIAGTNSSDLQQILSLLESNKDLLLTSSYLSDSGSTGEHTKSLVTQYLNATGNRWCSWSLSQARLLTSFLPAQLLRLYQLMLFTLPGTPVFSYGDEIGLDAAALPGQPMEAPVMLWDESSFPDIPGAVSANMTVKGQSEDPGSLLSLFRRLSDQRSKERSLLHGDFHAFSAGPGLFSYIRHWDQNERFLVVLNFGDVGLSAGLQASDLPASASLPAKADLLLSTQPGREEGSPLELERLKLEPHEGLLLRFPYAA
Text: All mutations were verified by sequencing.

wild-type BasC = assay: Thermostability-based L-alanine binding assay (GFP-fused protein, SEC); parameters: species or system Carnobacterium sp AT7; settings: for Kd Wild-type binding curve, normalized signal: n=1-3
Procedure: GFP-fused BasC proteins purified in DM were incubated for 10 min at 4–60 °C (Y236F and K154A mutants) or 4–70 °C (wild-type). In total, 200 µl of 2 mg ml^−1 protein was used for each temperature point. Protein was then centrifuged at 186,000 × g for 30 min. […] Fractions (200 µl) were collected and measured for GFP fluorescence. The peak heights were normalized to those of samples incubated at 4 °C and were fit to the Hill equation using the GraphPad Prism 4 program (GraphPad Software Inc., San Diego, CA). Melting temperatures (Tm) were determined by fitting the curves to a sigmoidal dose-response equation, as previously described.
BasC-GFP proteins were then incubated at the calculated Tm for 10 min and centrifuged at 186,000 × g for 30 min. […] Binding affinities were determined by fitting the curves to a sigmoidal dose-response equation.

C[C@H](N)C(=O)O [L-alanine]
transport of 10 µM [3H]L-alanine normalized to wild-type (hAsc-1 Y280F mutant): 133.65 and 128.34 and 128.02 and 123.34
Kd (wild-type BasC; WT BasC, incubated at Tm, L-alanine 0–200 mM, read-out: KD (apparent, thermostability-based)): 34.5 ± 2.1 mM
Kd Wild-type binding curve, normalized signal (wild-type BasC; [L-Alanine] 0.36 mM): 4.340 and 4.304 and 4.417
Kd Wild-type binding curve, normalized signal (wild-type BasC; [L-Alanine] 1.50 mM): 6.609 and 6.614 and 8.554
Kd Wild-type binding curve, normalized signal (wild-type BasC; [L-Alanine] 3.13 mM): 10.226 and 10.310 and 9.554
Kd Wild-type binding curve, normalized signal (wild-type BasC; [L-Alanine] 6.25 mM): 16.111 and 16.814 and 19.554
Kd Wild-type binding curve, normalized signal (wild-type BasC; [L-Alanine] 12.50 mM): 30.546 and 30.584 and 35.221
Kd Wild-type binding curve, normalized signal (wild-type BasC; [L-Alanine] 25 mM): 47.282 and 48.296 and 50.554
Kd Wild-type binding curve, normalized signal (wild-type BasC; [L-Alanine] 50 mM): 70.152 and 71.030 and 72.225
Kd Wild-type binding curve, normalized signal (wild-type BasC; [L-Alanine] 100 mM): 82.376 and 81.876 and 86.554
Kd Wild-type binding curve, normalized signal (wild-type BasC; [L-Alanine] 150 mM): 97.076 and 84.776 and 95.225
Kd Wild-type binding curve, normalized signal (wild-type BasC; [L-Alanine] 200 mM): 100.000
Kd (wild-type BasC; individual experiments n=1, n=2, n=3, read-out: Apparent Kd Wild type): 35.9 mM and 35.4 mM and 32.2 mM
Kd (wild-type BasC; mean of n=3, read-out: Apparent Kd Wild type, mean): 34.5 mM

From article PMC6472337, “L amino acid transporter structure and molecular bases for the asymmetry of substrate interaction” (Nature Communications, 2019)
